{"source": "patent US6077680A", "about": "(The University of Florida, dated 2000)", "data": [{"test_system": "rat brain membrane K channels (primarily Kv1.2)", "type": "binding", "values": [{"compound": "CC[C@H](C)[C@@H]1NC(=O)[C@@H](NC(=O)[C@H](CO)NC(=O)[C@@H](N)CCCNC(=N)N)CSSC[C@@H](C(=O)O)NC(=O)[C@H]([C@@H](C)O)NC(=O)CNC(=O)[C@@H]2CSSC[C@@H]3NC(=O)[C@H](CCC(N)=O)NC(=O)[C@H](Cc4ccccc4)NC(=O)[C@H](C)NC(=O)[C@H]([C@@H](C)O)NC(=O)[C@H](CSSC[C@H](NC(=O)[C@H](Cc4ccccc4)NC(=O)[C@H](CO)NC(=O)[C@H](CC(C)C)NC(=O)[C@H](CCCNC(=N)N)NC(=O)[C@H](Cc4ccc(O)cc4)NC(=O)[C@H](CCC(=O)O)NC(=O)[C@H](CCSC)NC(=O)[C@H](CO)NC(=O)[C@H](Cc4c[nH]cn4)NC(=O)[C@H](CCCCN)NC3=O)C(=O)N[C@@H](CCCNC(=N)N)C(=O)N[C@@H](CCCCN)C(=O)N[C@@H]([C@@H](C)O)C(=O)N2)NC(=O)[C@H](CCCNC(=N)N)NC(=O)[C@H](CO)NC(=O)[C@H](CCCCN)NC(=O)[C@@H]2CCCN2C(=O)[C@H]([C@@H](C)CC)NC(=O)[C@H]([C@@H](C)O)NC(=O)[C@H](CC(=O)O)NC1=O", "note": "[K22E]", "Equipotent Molar Ratio (Analog IC50 /ShK IC50)": 726.0, "Free Energy Differ. of Binding ΔF": 3.86, "binding affinity for rat brain K channels relative to wild-type ShK toxin, in words": "greatly reduced affinity"}, {"compound": "CC[C@H](C)[C@@H]1NC(=O)[C@@H](NC(=O)[C@H](CO)NC(=O)[C@@H](N)CCCNC(=N)N)CSSC[C@@H](C(=O)O)NC(=O)[C@H]([C@@H](C)O)NC(=O)CNC(=O)[C@@H]2CSSC[C@@H]3NC(=O)[C@H](CCC(N)=O)NC(=O)[C@H](Cc4ccccc4)NC(=O)[C@H](C)NC(=O)[C@H]([C@@H](C)O)NC(=O)[C@H](CSSC[C@H](NC(=O)[C@H](Cc4ccccc4)NC(=O)[C@H](CO)NC(=O)[C@H](C)NC(=O)[C@H](CCCNC(=N)N)NC(=O)[C@H](Cc4ccc(O)cc4)NC(=O)[C@H](CCCCN)NC(=O)[C@H](CCSC)NC(=O)[C@H](CO)NC(=O)[C@H](Cc4c[nH]cn4)NC(=O)[C@H](CCCCN)NC3=O)C(=O)N[C@@H](CCCNC(=N)N)C(=O)N[C@@H](CCCCN)C(=O)N[C@@H]([C@@H](C)O)C(=O)N2)NC(=O)[C@H](CCCNC(=N)N)NC(=O)[C@H](CO)NC(=O)[C@H](CCCCN)NC(=O)[C@@H]2CCCN2C(=O)[C@H]([C@@H](C)CC)NC(=O)[C@H]([C@@H](C)O)NC(=O)[C@H](CC(=O)O)NC1=O", "note": "[L25A]", "Difference of Free Energy of Binding": 0.20, "IC50 Ratio": 1.4}, {"compound": "RSCADTIPKSRCTAAQCKHSMKYRLSFCRKRCGTC [A4 + A15]", "Equipotent Molar Ratio (Analog IC50 /ShK IC50)": 0.5, "Free Energy Differ. of Binding ΔF": -0.41, "IC50 Ratio": 0.5, "binding affinity for rat brain K channels relative to wild-type ShK toxin, in words": "more potent than the wild-type toxin", "ΔF": -0.41}, {"compound": "RSCIDSTIPKSRCTAAQKHSMKYRASFCRKTCGTC [A15 + A25]", "Equipotent Molar Ratio (Analog IC50 /ShK IC50)": 2.1, "Free Energy Differ. of Binding ΔF": 0.43, "IC50 Ratio": 2.1, "ΔF": 0.43}]}]}
